Values quoted from earlier work as cited in patent US20140356423A1, “FORMULATIONS OF LYCOPENE IN COMBINATION WITH BISPHOSPHONATES BONE RESORPTION INHIBITORS” (priority 2013, published 2014).
Like-named read-outs stand apart in the source and are kept apart here.

Tests used:
[1] = tablet not taken with enough water, or patient not upright for approximately one-half hour after taking
[2] = taken either concurrently with or 2 hours after breakfast
[3] = system: alkaline phosphatase activity
[4] = system: osteoblast-like SaOS-2 cells

| impairment of availability [2] [%] | alkaline phosphatase activity ([3]; more mature cells grown in the presence of dexamethasone (SaOS+Dex cells)) | alkaline phosphatase activity ([3]; younger cells grown in the absence of dexamethasone (SaOS-Dex cells), depending on the time of addition) | Structure (SMILES) | side effects [1] | proliferation of osteoblast-like SaOS-2 cells [4] |
| --- | --- | --- | --- | --- | --- |
| > 85 | – | – | NCCCC(O)(P(=O)(O)O)P(=O)(O)O [alendronate, 4-amino-1-hydroxybutylidene-1,1-biphosphonic acid] | esophageal irritation and erosion | – |
| – | stimulate alkaline phosphatase activity | inhibited or had no effect | CC(C)=CCC/C(C)=C/C=C/C(C)=C/C=C/C(C)=C/C=C/C=C(C)/C=C/C=C(C)/C=C/C=C(\C)CCC=C(C)C [lycopene] | – | stimulated the proliferation |
